According to US9334246B2, “Substituted triazines for malaria treatment and chemoprophylaxis” (The United States of America, as represented by the …, priority 2013, dated 2016):

Columns and labels:
Assay type in all cases: cell-based, Plasmodium falciparum
[1] = test system: P. falciparum C235; assay: Malaria SYBR Green Fluorescence Assay, C235 strain; conditions: for C235: SYBR Green Assay
[2] = test system: P. falciparum D6; assay: Malaria SYBR Green Fluorescence Assay, D6 strain; conditions: for D6: SYBR Green Assay
[3] = test system: P. falciparum W2; assay: Malaria SYBR Green Fluorescence Assay, W2 strain; conditions: for W2: SYBR Green Assay

Row | Compound | C235 (SYBR Green Assay IC50) [1] [µg/mL] | D6 (SYBR Green Assay IC50) [2] [µg/mL] | W2 (SYBR Green Assay IC50) [3] [µg/mL] | C235 [1] [ng/mL] | D6 [2] [ng/mL] | W2 [3] [ng/mL]
1 | CC(C)N1CCC(CNc2nc(-c3ccc(C(C)(C)C)cc3)nc(C(Cl)(Cl)Cl)n2)CC1 [Cmpd 488] | 0.02 | 0.027 | 0.016 |  |  | 
2 | NC1CCN(CC1)C1═NC(═NC(═N1)C(Cl)(Cl)Cl)C1═CC═C(Cl)C(Cl)═C1 [Compound 622] | 0.059 | 0.074 | 0.036 |  |  | 
3 | CSc1ccc(-c2nc(NCC3(N)CCCCC3)nc(C(Cl)(Cl)Cl)n2)cc1 [Compound 664, CSC1═CC═C(C═C1)C1═NC(NCC2(N)CCCCC2)═NC(═N1)C(Cl)(Cl)Cl] |  |  |  | 47 | 18 | 21
4 | CC(C)CN1CCC(CC1)NC1═NC(═NC(═N1)C(Cl)(Cl)Cl)C1═C(C═CC═C1)[N+]([O−])═O [Compound 684] |  |  |  | 155 | 225 | 66
5 | CCN(CC)CCNc1nc(-c2ccccc2C)nc(C(Cl)(Cl)Cl)n1 [Cmpd 123] |  |  |  | 67 | 57 | 31
6 | CN1CCC(Nc2nc(-c3ccccc3[N+](=O)[O-])nc(C(Cl)(Cl)Cl)n2)CC1 [Cmpd 550] | 0.03585 | 0.04805 | 0.02059 |  |  | 
7 | CC(C)(C)c1ccc(-c2nc(NCc3cccnc3)nc(C(Cl)(Cl)Cl)n2)cc1 [Cmpd 158] |  |  |  | 324 | 260 | 92
8 | CC(C)(C)c1ccc(cc1)c2nc(NCc3cccc(CN4CCCC4)c3)nc(n2)C(Cl)(Cl)Cl [Compound 735] |  |  |  | 257.5 | 207.4 | 60.65
9 | CC(C)(N)CNc1nc(Nc2ccc(OC(F)(F)F)cc2)nc(C(Cl)(Cl)Cl)n1 [Cmpd 296] |  |  |  | 460 | 302 | 318
10 | CC1(C)C=Cc2cc(-c3nc(NCCc4cnccn4)nc(C(Cl)(Cl)Cl)n3)ccc2O1 [Cmpd 545] | 0.3 | 0.338 | 0.147 |  |  | 
11 | COc1cc(OC)cc(-c2nc(NC3CC(C)(C)NC(C)(C)C3)nc(C(Cl)(Cl)Cl)n2)c1 [Cmpd 527] | 0.024 | 0.026 | 0.021 |  |  | 
12 | CCN1CCCC(Nc2nc(-c3ccc(SC)cc3)nc(C(Cl)(Cl)Cl)n2)C1 (stereo not drawn) [Cmpd 88] |  |  |  | 77 | 79 | 69
13 | FC(F)(F)c1cccc(-c2nc(NCCc3cnccn3)nc(C(Cl)(Cl)Cl)n2)c1 [Cmpd 539] | 0.27 | 0.325 | 0.098 |  |  | 
14 | CCN1CCCC(Nc2nc(Cc3ccc(OC)cc3)nc(C(Cl)(Cl)Cl)n2)C1 (stereo not drawn) [Cmpd 86] |  |  |  | 991 | 623 | 600
15 | COc1ccc(-c2nc(NCCCN(C)C)nc(C(Cl)(Cl)Cl)n2)cc1OC [Cmpd 450] | 0.252 | 0.239 | 0.091 |  |  | 
16 | CN1CCC(CNc2nc(-c3ccccc3)nc(C(Cl)(Cl)Cl)n2)CC1 [Cmpd 512] | 0.057 | 0.103 | 0.03 |  |  | 
17 | CN(C)CCCNc1nc(Nc2ccc(Cl)cc2)nc(n1)C(Cl)(Cl)Cl [Compound 636] | 0.04 | 0.016 | 0.018 |  |  | 
18 | Cc1ccc(-c2ccccc2-c2nc(NCCN3CCCC3)nc(C(Cl)(Cl)Cl)n2)cc1 [Cmpd 266] |  |  |  | 530 | 654 | 474
19 | Clc1cc(Cl)cc(-c2nc(NCc3ccccn3)nc(C(Cl)(Cl)Cl)n2)c1 [Cmpd 210] |  |  |  | 78 | 112 | 72
